Experimental data as given in publication PMC10599993, “The PTPN2/PTPN1 inhibitor ABBV-CLS-484 unleashes potent anti-tumour immunity” (Nature, 2023).

Experiments:
Test in all cases: biochemical
Parameters in all cases: Kinase selectivity panel, IC50 of AC484 (Supplementary Table 1)
EGFR = EGFR (Homo sapiens, UniProt P00533)
Procedure: (§1) Wide-range phosphatase, kinase and preclinical safety pharmacology off-target activity screens were conducted at Eurofins (Extended Data Table 5 and Supplementary Tables 1 and 2). A small phosphatase panel was developed at AbbVie to assess IC50 values on select phosphatases. The following enzymes used in the phosphatase selectivity panel were purchased from Eurofins: PTPN1 (PTP1B; 14–621), PTPN2 (TC-PTP; 14–646), PTPN9 (14–592), SHP1 (14–591) and SHP2 (14–622). The catalytic activity of the phosphatase was monitored using the small-molecule substrate DiFMUP (ThermoFisher) in a fluorescence assay format. In brief, the phosphatase reactions were performed at room temperature in the following assay buffer: 50 mM HEPES, pH 7.2, 100 mM NaCl, 1 mM EDTA, 0.005% Tween-20 and 5 mM TCEP. Each phosphatase was incubated with increasing concentrations of AC484 for 5 min, after which the substrate DiFMUP was added and incubated at 25 °C for 30 min. The final concentration of the enzyme and substrate was maintained at 0.5 nM and 5 μM, respectively, in all the assays. The reaction was then quenched by the addition of a 100 μM solution of bpV(Phen) (Enzo Life Sciences). The fluorescence signal was monitored using an Envision microplate reader (Perkin-Elmer) using excitation and emission wavelengths of 340 nm and 450 nm, respectively. The dose–response curves for the inhibitors were analysed using normalized IC50 regression curve fitting with control-based normalization. Supplementary file 41586_2023_6575_MOESM3_ESM.xlsx: Supplementary Table 1 AC484 kinase selectivity screen.

Flt1 = Flt1 (Homo sapiens, UniProt P17948)
Chain of Flt1 (P17948 whole entry): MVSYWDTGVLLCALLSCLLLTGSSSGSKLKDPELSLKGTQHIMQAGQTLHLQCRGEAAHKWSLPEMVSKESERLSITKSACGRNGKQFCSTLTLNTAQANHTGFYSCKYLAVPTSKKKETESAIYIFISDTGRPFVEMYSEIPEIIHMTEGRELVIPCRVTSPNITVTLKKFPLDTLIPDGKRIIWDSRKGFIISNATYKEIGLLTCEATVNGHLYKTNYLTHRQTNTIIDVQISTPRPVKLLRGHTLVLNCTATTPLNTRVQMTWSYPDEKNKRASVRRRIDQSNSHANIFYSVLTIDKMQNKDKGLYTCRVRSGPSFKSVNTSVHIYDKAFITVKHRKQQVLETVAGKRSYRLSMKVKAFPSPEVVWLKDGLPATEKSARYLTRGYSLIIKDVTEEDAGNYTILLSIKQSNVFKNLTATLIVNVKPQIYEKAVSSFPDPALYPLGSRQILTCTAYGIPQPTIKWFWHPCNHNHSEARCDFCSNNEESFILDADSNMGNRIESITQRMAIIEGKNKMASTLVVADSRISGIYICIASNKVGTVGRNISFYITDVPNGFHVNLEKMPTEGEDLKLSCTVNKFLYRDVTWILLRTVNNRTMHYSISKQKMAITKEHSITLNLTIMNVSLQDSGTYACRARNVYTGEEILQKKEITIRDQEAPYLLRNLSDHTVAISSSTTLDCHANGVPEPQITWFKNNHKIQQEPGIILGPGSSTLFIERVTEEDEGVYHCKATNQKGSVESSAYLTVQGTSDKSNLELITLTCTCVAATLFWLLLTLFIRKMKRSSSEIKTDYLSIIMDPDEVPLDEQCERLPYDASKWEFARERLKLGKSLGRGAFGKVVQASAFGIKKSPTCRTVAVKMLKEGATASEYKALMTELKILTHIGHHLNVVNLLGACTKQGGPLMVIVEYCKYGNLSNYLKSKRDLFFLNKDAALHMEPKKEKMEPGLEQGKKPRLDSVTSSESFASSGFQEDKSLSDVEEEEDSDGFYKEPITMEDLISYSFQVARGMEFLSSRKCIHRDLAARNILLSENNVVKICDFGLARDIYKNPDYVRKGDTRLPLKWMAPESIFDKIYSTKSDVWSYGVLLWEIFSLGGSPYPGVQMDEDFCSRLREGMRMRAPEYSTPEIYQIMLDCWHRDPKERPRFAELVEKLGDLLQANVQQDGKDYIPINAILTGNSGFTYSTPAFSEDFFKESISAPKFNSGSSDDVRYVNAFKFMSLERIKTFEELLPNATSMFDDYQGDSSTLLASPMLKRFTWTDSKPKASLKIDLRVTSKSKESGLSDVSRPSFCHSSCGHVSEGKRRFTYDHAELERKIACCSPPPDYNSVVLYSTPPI
Procedure: as §1

Gsk3b = Gsk3b (Homo sapiens, UniProt P49841)
Chain of Gsk3b (P49841 whole entry): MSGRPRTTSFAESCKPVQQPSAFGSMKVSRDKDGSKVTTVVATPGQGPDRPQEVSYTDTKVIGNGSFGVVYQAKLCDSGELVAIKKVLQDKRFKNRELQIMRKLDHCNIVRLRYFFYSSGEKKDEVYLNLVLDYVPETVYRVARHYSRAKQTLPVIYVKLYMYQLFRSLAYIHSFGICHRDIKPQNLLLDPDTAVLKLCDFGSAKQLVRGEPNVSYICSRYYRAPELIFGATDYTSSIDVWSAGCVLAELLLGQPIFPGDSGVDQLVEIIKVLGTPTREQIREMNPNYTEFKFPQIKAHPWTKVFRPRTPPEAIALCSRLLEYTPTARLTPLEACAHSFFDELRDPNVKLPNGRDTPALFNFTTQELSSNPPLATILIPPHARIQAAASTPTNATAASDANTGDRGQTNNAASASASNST
Procedure: as §1

LTK = LTK (Homo sapiens, UniProt P29376)
Chain of LTK (P29376 whole entry): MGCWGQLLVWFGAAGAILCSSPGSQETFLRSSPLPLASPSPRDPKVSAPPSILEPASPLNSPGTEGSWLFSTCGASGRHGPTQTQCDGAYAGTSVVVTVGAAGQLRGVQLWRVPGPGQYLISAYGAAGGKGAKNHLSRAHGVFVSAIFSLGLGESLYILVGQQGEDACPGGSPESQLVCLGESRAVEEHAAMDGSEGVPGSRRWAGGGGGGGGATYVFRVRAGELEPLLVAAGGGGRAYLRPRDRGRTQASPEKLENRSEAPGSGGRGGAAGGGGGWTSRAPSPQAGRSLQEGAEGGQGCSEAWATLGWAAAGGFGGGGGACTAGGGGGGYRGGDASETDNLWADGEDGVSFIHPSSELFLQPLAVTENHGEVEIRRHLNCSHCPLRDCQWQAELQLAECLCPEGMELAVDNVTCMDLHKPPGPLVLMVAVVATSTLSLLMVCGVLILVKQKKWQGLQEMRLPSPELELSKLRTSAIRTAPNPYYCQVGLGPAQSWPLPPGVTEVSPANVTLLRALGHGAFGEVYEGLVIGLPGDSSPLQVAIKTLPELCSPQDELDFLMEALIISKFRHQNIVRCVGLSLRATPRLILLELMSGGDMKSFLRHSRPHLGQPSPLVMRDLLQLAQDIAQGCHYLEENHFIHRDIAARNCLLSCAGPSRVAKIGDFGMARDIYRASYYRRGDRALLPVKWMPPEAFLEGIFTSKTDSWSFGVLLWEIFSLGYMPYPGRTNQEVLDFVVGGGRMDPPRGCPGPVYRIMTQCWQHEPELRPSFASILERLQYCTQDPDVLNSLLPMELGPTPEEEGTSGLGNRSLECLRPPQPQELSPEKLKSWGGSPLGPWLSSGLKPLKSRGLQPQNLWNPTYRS
Procedure: as §1

Nek2 = Nek2 (Homo sapiens, UniProt P51955)
Procedure: as §1

PKA = target: T1, PKA (Homo sapiens, UniProt P17612)
T1 construct: gene PRKACA
Procedure: as §1

PKAc beta = target: T2, PKAc beta (Homo sapiens, UniProt P22694)
T2 construct: gene PRKACB
Procedure: as §1

Plk4 = Plk4 (Homo sapiens, UniProt O00444)
Procedure: as §1

Prkcn = target: T3, Prkcn (Homo sapiens, UniProt O94806)
T3 construct: gene PRKD3
Procedure: as §1

SIK1 = SIK1 (Homo sapiens, UniProt P57059)
Chain of SIK1 (P57059 whole entry): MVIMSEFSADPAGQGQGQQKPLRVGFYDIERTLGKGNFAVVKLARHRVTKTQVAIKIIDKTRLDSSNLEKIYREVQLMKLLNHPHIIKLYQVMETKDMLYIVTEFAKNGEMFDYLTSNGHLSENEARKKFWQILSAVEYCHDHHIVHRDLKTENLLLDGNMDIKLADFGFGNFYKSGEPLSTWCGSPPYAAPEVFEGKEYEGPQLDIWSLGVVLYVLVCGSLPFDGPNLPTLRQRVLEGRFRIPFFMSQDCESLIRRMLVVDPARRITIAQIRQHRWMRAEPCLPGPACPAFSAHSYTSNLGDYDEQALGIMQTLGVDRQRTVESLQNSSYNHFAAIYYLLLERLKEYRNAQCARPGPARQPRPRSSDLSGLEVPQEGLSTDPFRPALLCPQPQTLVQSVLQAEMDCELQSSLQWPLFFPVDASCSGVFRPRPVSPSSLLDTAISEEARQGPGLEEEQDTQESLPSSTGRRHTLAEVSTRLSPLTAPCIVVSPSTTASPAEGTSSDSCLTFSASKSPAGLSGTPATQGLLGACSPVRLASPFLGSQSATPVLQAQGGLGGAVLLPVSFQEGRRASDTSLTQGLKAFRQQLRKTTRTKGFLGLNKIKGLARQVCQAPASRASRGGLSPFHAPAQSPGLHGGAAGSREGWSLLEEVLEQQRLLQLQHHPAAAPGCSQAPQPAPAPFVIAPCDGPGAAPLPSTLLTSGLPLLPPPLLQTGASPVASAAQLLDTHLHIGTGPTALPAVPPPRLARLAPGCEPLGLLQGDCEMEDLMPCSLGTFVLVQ
Procedure: as §1

STK33 = STK33 (Homo sapiens, UniProt Q9BYT3)
Procedure: as §1

TNK2 = TNK2 (Homo sapiens, UniProt Q07912)
Chain of TNK2 (Q07912 whole entry): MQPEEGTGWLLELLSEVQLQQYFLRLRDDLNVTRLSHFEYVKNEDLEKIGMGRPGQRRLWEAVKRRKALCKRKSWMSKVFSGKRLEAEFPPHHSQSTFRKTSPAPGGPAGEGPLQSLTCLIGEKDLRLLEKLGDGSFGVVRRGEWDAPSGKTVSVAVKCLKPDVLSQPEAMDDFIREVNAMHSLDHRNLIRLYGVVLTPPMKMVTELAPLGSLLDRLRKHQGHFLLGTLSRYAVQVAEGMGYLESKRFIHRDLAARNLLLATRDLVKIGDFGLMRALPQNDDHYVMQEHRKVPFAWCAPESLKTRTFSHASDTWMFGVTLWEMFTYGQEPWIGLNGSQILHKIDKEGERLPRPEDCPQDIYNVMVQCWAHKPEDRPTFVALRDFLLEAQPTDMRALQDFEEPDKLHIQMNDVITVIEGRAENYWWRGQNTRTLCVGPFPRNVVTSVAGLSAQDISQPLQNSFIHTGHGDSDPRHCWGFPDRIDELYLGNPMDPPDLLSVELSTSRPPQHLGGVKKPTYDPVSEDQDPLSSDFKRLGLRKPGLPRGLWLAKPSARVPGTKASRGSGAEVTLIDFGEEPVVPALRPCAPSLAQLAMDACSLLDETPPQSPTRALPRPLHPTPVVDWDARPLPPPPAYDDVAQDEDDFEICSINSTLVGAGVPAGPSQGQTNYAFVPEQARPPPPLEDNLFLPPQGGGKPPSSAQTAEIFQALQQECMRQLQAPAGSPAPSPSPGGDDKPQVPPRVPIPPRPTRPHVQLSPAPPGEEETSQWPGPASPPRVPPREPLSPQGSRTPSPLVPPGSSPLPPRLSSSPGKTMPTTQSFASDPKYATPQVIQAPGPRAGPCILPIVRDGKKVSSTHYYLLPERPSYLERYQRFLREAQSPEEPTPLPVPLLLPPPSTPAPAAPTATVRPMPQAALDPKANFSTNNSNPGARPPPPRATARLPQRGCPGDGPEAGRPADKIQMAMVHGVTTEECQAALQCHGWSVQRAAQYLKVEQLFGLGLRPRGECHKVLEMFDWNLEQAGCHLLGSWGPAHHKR
Procedure: as §1

Wee1 = Wee1 (Homo sapiens, UniProt P30291)
Chain of Wee1 (P30291 whole entry): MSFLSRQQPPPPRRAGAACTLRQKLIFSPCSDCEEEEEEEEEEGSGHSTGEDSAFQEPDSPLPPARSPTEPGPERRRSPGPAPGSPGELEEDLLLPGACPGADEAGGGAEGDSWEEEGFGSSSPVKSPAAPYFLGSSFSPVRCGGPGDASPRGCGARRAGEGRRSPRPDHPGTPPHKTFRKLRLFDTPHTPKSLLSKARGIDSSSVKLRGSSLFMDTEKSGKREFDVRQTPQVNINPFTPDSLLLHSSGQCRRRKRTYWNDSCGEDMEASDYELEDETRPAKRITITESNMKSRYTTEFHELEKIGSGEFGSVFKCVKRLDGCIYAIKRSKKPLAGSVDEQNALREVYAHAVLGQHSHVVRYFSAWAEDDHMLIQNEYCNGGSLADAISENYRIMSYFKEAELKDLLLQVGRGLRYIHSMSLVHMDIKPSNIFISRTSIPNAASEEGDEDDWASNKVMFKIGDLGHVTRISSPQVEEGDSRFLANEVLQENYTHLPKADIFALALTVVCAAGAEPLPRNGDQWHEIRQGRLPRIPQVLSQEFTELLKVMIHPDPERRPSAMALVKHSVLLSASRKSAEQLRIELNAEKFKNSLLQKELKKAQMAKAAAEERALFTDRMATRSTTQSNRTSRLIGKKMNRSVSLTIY
Procedure: as §1

Measured: IC50

CC(C)CCN[C@@H]1CCc2cc(O)c(N3CC(=O)NS3(=O)=O)c(F)c2C1 [AC484, ABBV-CLS-484]
> 10 µM: all assays above
